Assay: recombinant UMI read abundance after kanamycin selection (control-corrected) (log10(CPM+1)); higher = more efficient recombination; extreme values may be limits of the assay; sequences stand for … in AGTGCAGAGAAAATCGGCCAGTTTTCTCTGCCTGCAGTCCGCATGCCGTGGGACCCCTTGGGTTCTAACCTGTTGCCTAGATTTATGCAGCGGACTGCCTTTCTCCCAAAGTGATAAACCGG…AGGTTGGTTTCACT; site = the 11-nt donor
In short: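 In a pooled Escherichia coli screen for the IS621 bridge recombinase, donor and donor-binding-loop pairs were each placed with a 12-nt UMI on a plasmid bearing a promoterless kanamycin gene. This library was co-electroporated with a target plasmid encoding a fixed target and T7-inducible recombinase, and cells were plated either on IPTG (0.07 mM) plus kanamycin or without selection, in two replicates each. Recombinant UMIs were PCR-amplified across the donor–target junction and sequenced, and counts were converted to CPM, averaged over replicates, scaled by control-derived factors and reported as log10(CPM+1).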
In the case of “CAGGTGGCATGGACCGGTTTTCCCGGTAATCCGTATTTGCG (site CAGGTGGCTCG)”, the “recombinant UMI read abundance (log10)” value is reported as 1.88.
In the case of “GAACTATCATGGACCGGTTTTCCCGGTAATCCGTATTTGCC (site GAACTATCTGG)”, the “recombinant UMI read abundance (log10)” value is reported as 1.78.
For “CGAGGAGCATGGACCGGTTTTCCCGGTAATCCGTATTTGGG (site CGAGGAACTCC)”, the “recombinant UMI read abundance (log10)” value was 0.567.
For “CCCGGTCCATGGACCGGTTTTCCCGGTAATCCGTATTTGCA (site CCCGGGCCTTG)”, the “recombinant UMI read abundance (log10)” value was 0.00671.
For “CGGACATCATGGACCGGTTTTCCCGGTAATCCGTATTTGCT (site TGGACATCTAG)”, the “recombinant UMI read abundance (log10)” value was 0.773.
For “TCGGTATCATGGACCGGTTTTCCCGGTAATCCGTATTTGGT (site TCGGTATCTAC)”, the “recombinant UMI read abundance (log10)” value was 1.89.
With “CGAGGTGCATGGACCGGTTTTCCCGGTAATCCGTATTTGAT (site CGAGGTGCTAT)” the “recombinant UMI read abundance (log10)” value was 2.36.
With “TAGAATACATGGACCGGTTTTCCCGGTAATCCGTATTTGAA (site TAGAATACTTG)” the “recombinant UMI read abundance (log10)” value was 0.
With “GAGGTACCATGGACCGGTTTTCCCGGTAATCCGTATTTGTA (site GAGGTACCTTA)” the “recombinant UMI read abundance (log10)” value was 0.00435.
With “TATTAGACATGGACCGGTTTTCCCGGTAATCCGTATTTGCG (site TATTAGACTCG)” the “recombinant UMI read abundance (log10)” value was 1.03.
For “ACCGAGACATGGACCGGTTTTCCCGGTAATCCGTATTTGGG (site ACCAAGACTCC)”, the “recombinant UMI read abundance (log10)” value was 0.109.
For “ATAAGGCCATGGACCGGTTTTCCCGGTAATCCGTATTTGAC (site AGAAGGCCTGT)”, the “recombinant UMI read abundance (log10)” value was 0.
For “CACTTGCCATGGACCGGTTTTCCCGGTAATCCGTATTTGGA (site CACTTGACTTC)”, the “recombinant UMI read abundance (log10)” value was 0.0268.
In the case of “AGGAATGCATGGACCGGTTTTCCCGGTAATCCGTATTTGCA (site AGGAAGACTTG)”, the “recombinant UMI read abundance (log10)” value is reported as 0.
With “CCAAAAGCATGGACCGGTTTTCCCGGTAATCCGTATTTGAT (site CCCAAAGCTAT)” the “recombinant UMI read abundance (log10)” value was 0.
With “AACTAGCCATGGACCGGTTTTCCCGGTAATCCGTATTTGCG (site AACTAGCCTCG)” the “recombinant UMI read abundance (log10)” value was 0.00356.
For “CGTTCCCCATGGACCGGTTTTCCCGGTAATCCGTATTTGTA (site AGTTCCCCTTA)”, the “recombinant UMI read abundance (log10)” value was 0.00297.
With “CTACTAGCATGGACCGGTTTTCCCGGTAATCCGTATTTGGA (site CTACTAGCTTC)” the “recombinant UMI read abundance (log10)” value was 1.52.
In the case of “CAGTCGACATGGACCGGTTTTCCCGGTAATCCGTATTTGGG (site CAGTCGACTGC)”, the “recombinant UMI read abundance (log10)” value is reported as 0.
For “ACCGGTCCATGGACCGGTTTTCCCGGTAATCCGTATTTGTT (site ACCGGTCCTAA)”, the “recombinant UMI read abundance (log10)” value was 0.
In the case of “CTCCCTACATGGACCGGTTTTCCCGGTAATCCGTATTTGAG (site CTCCCCACTCT)”, the “recombinant UMI read abundance (log10)” value is reported as 0.0165.
For “AAATAAGCATGGACCGGTTTTCCCGGTAATCCGTATTTGGG (site AAATAAGCTCC)”, the “recombinant UMI read abundance (log10)” value was 0.434.
With “TACCTGACATGGACCGGTTTTCCCGGTAATCCGTATTTGCT (site TACATGACTAG)” the “recombinant UMI read abundance (log10)” value was 0.
For “TATCCGTCATGGACCGGTTTTCCCGGTAATCCGTATTTGAA (site TATCCGTCTTT)”, the “recombinant UMI read abundance (log10)” value was 0.0803.
For “ACAAGAACATGGACCGGTTTTCCCGGTAATCCGTATTTGTC (site ACAGGAACTGA)”, the “recombinant UMI read abundance (log10)” value was 0.
With “CACGGCCCATGGACCGGTTTTCCCGGTAATCCGTATTTGTA (site CACGGCCCTGA)” the “recombinant UMI read abundance (log10)” value was 1.81.
With “GGCCACCCATGGACCGGTTTTCCCGGTAATCCGTATTTGTC (site GGCCACCCTTA)” the “recombinant UMI read abundance (log10)” value was 0.0183.
For “AGTACGTCATGGACCGGTTTTCCCGGTAATCCGTATTTGTT (site AGTACGTCTAA)”, the “recombinant UMI read abundance (log10)” value was 0.258.
For “AATCGTCCATGGACCGGTTTTCCCGGTAATCCGTATTTGAT (site AAGCGTCCTAT)”, the “recombinant UMI read abundance (log10)” value was 0.432.
In the case of “GAACTCACATGGACCGGTTTTCCCGGTAATCCGTATTTGAT (site GAACTCACTAT)”, the “recombinant UMI read abundance (log10)” value is reported as 2.08.
For “GATAATCCATGGACCGGTTTTCCCGGTAATCCGTATTTGCT (site GATAATCCTAG)”, the “recombinant UMI read abundance (log10)” value was 0.
For “AGGAAGACATGGACCGGTTTTCCCGGTAATCCGTATTTGCA (site AGGAACACTTT)”, the “recombinant UMI read abundance (log10)” value was 0.0161.
With “TCTACACCATGGACCGGTTTTCCCGGTAATCCGTATTTGAC (site TTTACACCTGT)” the “recombinant UMI read abundance (log10)” value was 0.
For “GTAAGAACATGGACCGGTTTTCCCGGTAATCCGTATTTGGC (site GTAAGAACTGC)”, the “recombinant UMI read abundance (log10)” value was 2.33.
For “CCAATCACATGGACCGGTTTTCCCGGTAATCCGTATTTGGG (site CCAATCACTCC)”, the “recombinant UMI read abundance (log10)” value was 0.336.
In the case of “CATTGAGCATGGACCGGTTTTCCCGGTAATCCGTATTTGTA (site CATTGAGCTTA)”, the “recombinant UMI read abundance (log10)” value is reported as 2.06.
For “TAGTAACCATGGACCGGTTTTCCCGGTAATCCGTATTTGAG (site TAGTAACCTCT)”, the “recombinant UMI read abundance (log10)” value was 0.00753.
With “CTGACATCATGGACCGGTTTTCCCGGTAATCCGTATTTGAG (site CTGACATCTCT)” the “recombinant UMI read abundance (log10)” value was 1.86.

— the supplement of paper PMC11208160
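Further: IS621 bridge recombinase in Escherichia coli cells against a fixed T5 target plasmid.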
